Target: T1, Bcl-2 protein (Recombinant Human Bcl-2 Protein) (Homo sapiens, UniProt P10415)
T1 construct: purchased Novus Biologicals NBP2-34889
Experiment: AS-MS evaluation of binding of the Example 4 mixture library (1200 compounds/well) to Bcl-2, ASMS ratio (%)
Settings: AS-MS, Example 4 mixture library; for ASMS ratio (%) n = 1: Bcl-2, replicate n = 1; for ASMS ratio (%) n = 2: Bcl-2, replicate n = 2
Procedure, shortened: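 ASMS ratio (%) derived from reverse-phase LC/MS of three samples: Bcl-2 (20 μM) incubation after SEC, protein-free standard without SEC, and protein-free blank after SEC. Compounds were pooled at 1200/well, 20 nM each, incubated 1 h, 23 °C, dark, in Tris-HCl pH 7.4 buffer with Tween-20 and DTT.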

T1 sequence (P10415 whole entry): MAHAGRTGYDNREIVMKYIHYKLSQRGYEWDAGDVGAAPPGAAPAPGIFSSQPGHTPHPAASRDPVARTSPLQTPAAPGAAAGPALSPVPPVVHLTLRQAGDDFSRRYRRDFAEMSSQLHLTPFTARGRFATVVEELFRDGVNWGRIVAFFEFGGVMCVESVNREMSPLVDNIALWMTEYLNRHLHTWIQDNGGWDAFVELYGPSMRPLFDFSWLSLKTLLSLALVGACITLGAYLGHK

ASMS ratio (%) n = 1 [%]	ASMS ratio (%) n = 2 [%]	Compound
0.0	0.0	CCOc1cncc(-c2ccc(CN3CCN(c4ccc(C(=O)NS(=O)(=O)CCC(F)(F)F)cc4)CC3)c3ccccc23)c1 [Compound B2N066-01, 4-[4-[[4-(5-Ethoxypyridin-3-yl)naphthalen-1-yl]methyl]piperazin-1-yl]-N-(3,3,3-trifluoropropylsulfonyl)benzamide]
0.0	0.0	CCOc1cccc(-c2csc(CN3CCN(c4ccc(C(=O)NS(=O)(=O)CCC(F)(F)F)cc4)CC3)c2)c1 [Compound B2N067-01, 4-[4-[[4-(3-Ethoxyphenyl)thiophen-2-yl]methyl]piperazin-1-yl]-N-(3,3,3-trifluoropropylsulfonyl)benzamide]
0.0	0.5	CCOc1cncc(-c2csc(CN3CCN(c4ccc(C(=O)NS(=O)(=O)CCC(F)(F)F)cc4)CC3)c2)c1 [Compound B2N068-01, 4-[4-[[4-(5-Ethoxypyridin-3-yl)thiophen-2-yl]methyl]piperazin-1-yl]-N-(3,3,3-trifluoropropylsulfonyl)benzamide]
−1.8	−1.5	CCOc1cccc(C#Cc2ccccc2CN2CCN(c3ccc(C(=O)NS(=O)(=O)CCC(F)(F)F)cc3)CC2)c1 [Compound B2N069-01, 4-[4-[[2-[2-(3-Ethoxyphenyl)ethynyl]phenyl]methyl]piperazin-1-yl]-N-(3,3,3-trifluoropropylsulfonyl)benzamide]
0.0	0.0	CCOc1cncc(C#Cc2ccccc2CN2CCN(c3ccc(C(=O)NS(=O)(=O)CCC(F)(F)F)cc3)CC2)c1 [Compound B2N070-01, 4-[4-[[2-[2-(5-Ethoxypyridin-3-yl)ethynyl]phenyl]methyl]piperazin-1-yl]-N-(3,3,3-trifluoropropylsulfonyl)benzamide]
0.0	0.0	CCOc1cccc(-c2ccccc2CN2CCN(c3ccc(C(=O)NS(=O)(=O)CCC(F)(F)F)nn3)CC2)c1 [Compound B2N071-01, 6-[4-[[2-(3-Ethoxyphenyl)phenyl]methyl]piperazin-1-yl]-N-(3,3,3-trifluoropropylsulfonyl)pyridazine-3-carboxamide]
0.0	0.1	CCOc1cncc(-c2ccccc2CN2CCN(c3ccc(C(=O)NS(=O)(=O)CCC(F)(F)F)nn3)CC2)c1 [Compound B2N072-01, 6-[4-[[2-(5-Ethoxypyridin-3-yl)phenyl]methyl]piperazin-1-yl]-N-(3,3,3-trifluoropropylsulfonyl)pyridazine-3-carboxamide]
0.0	0.0	CCOc1cccc(-c2ccc(CN3CCN(c4ccc(C(=O)NS(=O)(=O)CCC(F)(F)F)nn4)CC3)cc2C)c1 [Compound B2N073-01, 6-[4-[[4-(3-Ethoxyphenyl)-3-methylphenyl]methyl]piperazin-1-yl]-N-(3,3,3-trifluoropropylsulfonyl)pyridazine-3-carboxamide]
0.0	0.0	CCOc1cncc(-c2ccc(CN3CCN(c4ccc(C(=O)NS(=O)(=O)CCC(F)(F)F)nn4)CC3)cc2C)c1 [Compound B2N074-01, 6-[4-[[4-(5-Ethoxypyridin-3-yl)-3-methylphenyl]methyl]piperazin-1-yl]-N-(3,3,3-trifluoropropylsulfonyl)pyridazine-3-carboxamide]
0.0	0.0	CCOc1cncc(-c2ccc(CN3CCN(c4ccc(C(=O)NS(=O)(=O)CCC(F)(F)F)nn4)CC3)c(CC)c2)c1 [Compound B2N076-01, 6-[4-[[4-(5-Ethoxypyridin-3-yl)-2-ethylphenyl]methyl]piperazin-1-yl]-N-(3,3,3-trifluoropropylsulfonyl)pyridazine-3-carboxamide]
0.0	0.0	CCOc1cccc(-c2ccc(CN3CCN(c4ccc(C(=O)NS(=O)(=O)CCC(F)(F)F)nn4)CC3)cc2F)c1 [Compound B2N077-01, 6-[4-[[4-(3-Ethoxyphenyl)-3-fluorophenyl]methyl]piperazin-1-yl]-N-(3,3,3-trifluoropropylsulfonyl)pyridazine-3-carboxamide]
0.0	0.0	CCOc1cncc(-c2ccc(CN3CCN(c4ccc(C(=O)NS(=O)(=O)CCC(F)(F)F)nn4)CC3)cc2F)c1 [Compound B2N078-01, 6-[4-[[4-(5-Ethoxypyridin-3-yl)-3-fluorophenyl]methyl]piperazin-1-yl]-N-(3,3,3-trifluoropropylsulfonyl)pyridazine-3-carboxamide]
0.0	0.0	CCOc1cccc(-c2ccc(CN3CCN(c4ccc(C(=O)NS(=O)(=O)CCC(F)(F)F)nn4)CC3)c(OC)c2)c1 [Compound B2N079-01, 6-[4-[[4-(3-Ethoxyphenyl)-2-methoxyphenyl]methyl]piperazin-1-yl]-N-(3,3,3-trifluoropropylsulfonyl)pyridazine-3-carboxamide]
0.0	0.0	CCOc1cncc(-c2ccc(CN3CCN(c4ccc(C(=O)NS(=O)(=O)CCC(F)(F)F)nn4)CC3)c(OC)c2)c1 [Compound B2N080-01, 6-[4-[[4-(5-Ethoxypyridin-3-yl)-2-methoxyphenyl]methyl]piperazin-1-yl]-N-(3,3,3-trifluoropropylsulfonyl)pyridazine-3-carboxamide]
0.0	0.0	CCOc1cccc(-c2cc(CN3CCN(c4ccc(C(=O)NS(=O)(=O)CCC(F)(F)F)nn4)CC3)cc(OCC)c2)c1 [Compound B2N081-01]

The remaining lines, values behind:

Compound	ASMS ratio (%) n = 1 [%]	ASMS ratio (%) n = 2 [%]
CCOc1cncc(-c2ccc(CN3CCN(c4ccc(C(=O)NS(=O)(=O)CCC(F)(F)F)cc4)CC3)c(OC)c2)c1 [Compound B2N054-01, 4-[4-[[4-(5-Ethoxypyridin-3-yl)-2-methoxyphenyl]methyl]piperazin-1-yl]-N-(3,3,3-trifluoropropylsulfonyl)benzamide]	0.0	0.0
CCOc1cccc(-c2cc(CN3CCN(c4ccc(C(=O)NS(=O)(=O)CCC(F)(F)F)cc4)CC3)cc(OCC)c2)c1 [Compound B2N055-01]	0.0	0.0
CCOc1cncc(-c2cc(CN3CCN(c4ccc(C(=O)NS(=O)(=O)CCC(F)(F)F)cc4)CC3)cc(OCC)c2)c1 [Compound B2N056-01, 4-[4-[[3-Ethoxy-5-(5-ethoxypyridin-3-yl)phenyl]methyl]piperazin-1-yl]-N-(3,3,3-trifluoropropylsulfonyl)benzamide]	0.0	0.0
CCOc1cccc(-c2cc(CN3CCN(c4ccc(C(=O)NS(=O)(=O)CCC(F)(F)F)cc4)CC3)cc(OC(C)C)c2)c1 [Compound B2N057-01, 4-[4-[[3-(3-Ethoxyphenyl)-5-propan-2-yloxyphenyl]methyl]piperazin-1-yl]-N-(3,3,3-trifluoropropylsulfonyl)benzamide]	0.0	−1.8
CCOc1cncc(-c2cc(CN3CCN(c4ccc(C(=O)NS(=O)(=O)CCC(F)(F)F)cc4)CC3)cc(OC(C)C)c2)c1 [Compound B2N058-01]	0.0	0.0
CCOc1cccc(-c2cc(OC)c(CN3CCN(c4ccc(C(=O)NS(=O)(=O)CCC(F)(F)F)cc4)CC3)c(OC)c2)c1 [Compound B2N059-01, 4-[4-[[4-(3-Ethoxyphenyl)-2,6-dimethoxyphenyl]methyl]piperazin-1-yl]-N-(3,3,3-trifluoropropylsulfonyl)benzamide]	0.0	0.0
CCOc1cncc(-c2cc(OC)c(CN3CCN(c4ccc(C(=O)NS(=O)(=O)CCC(F)(F)F)cc4)CC3)c(OC)c2)c1 [Compound B2N060-01, 4-[4-[[4-(5-Ethoxypyridin-3-yl)-2,6-dimethoxyphenyl]methyl]piperazin-1-yl]-N-(3,3,3-trifluoropropylsulfonyl)benzamide]	0.0	0.0
CCOc1cccc(-c2cc(CN3CCN(c4ccc(C(=O)NS(=O)(=O)CCC(F)(F)F)cc4)CC3)cc(C(F)(F)F)c2)c1 [Compound B2N061-01]	0.0	0.0
CCOc1cncc(-c2cc(CN3CCN(c4ccc(C(=O)NS(=O)(=O)CCC(F)(F)F)cc4)CC3)cc(C(F)(F)F)c2)c1 [Compound B2N062-01, 4-[4-[[3-(5-Ethoxypyridin-3-yl)-5-(trifluoromethyl)phenyl]methyl]piperazin-1-yl]-N-(3,3,3-trifluoropropylsulfonyl)benzamide]	0.0	0.0
CCOc1cccc(-c2cc(CN3CCN(c4ccc(C(=O)NS(=O)(=O)CCC(F)(F)F)cc4)CC3)cc(OC(F)(F)F)c2)c1 [Compound B2N063-01, 4-[4-[[3-(3-Ethoxyphenyl)-5-(trifluoromethoxy)phenyl]methyl]piperazin-1-yl]-N-(3,3,3-trifluoropropylsulfonyl)benzamide]	−0.3	−3.8
CCOc1cncc(-c2cc(CN3CCN(c4ccc(C(=O)NS(=O)(=O)CCC(F)(F)F)cc4)CC3)cc(OC(F)(F)F)c2)c1 [Compound B2N064-01, 4-[4-[[3-(5-Ethoxypyridin-3-yl)-5-(trifluoromethoxy)phenyl]methyl]piperazin-1-yl]-N-(3,3,3-trifluoropropylsulfonyl)benzamide]	0.0	0.0
CCOc1cccc(-c2ccc(CN3CCN(c4ccc(C(=O)NS(=O)(=O)CCC(F)(F)F)cc4)CC3)c3ccccc23)c1 [Compound B2N065-01, 4-[4-[[4-(3-Ethoxyphenyl)naphthalen-1-yl]methyl]piperazin-1-yl]-N-(3,3,3-trifluoropropylsulfonyl)benzamide]	0.0	0.0

From patent US20250154686A1, “COMPOUND LIBRARY” (CHUGAI SEIYAKU KABUSHIKI KAISHA, priority 2021, published 2025)
